According to patent publication US10801035B2, “Plants having increased tolerance to herbicides” (BASF SE, priority 2011, dated 2020):

Key:
[1] = tested on: Lolium HPPD; experiment: HPPD activity assay, Lolium HPPD; type: biochemical; settings: normalized on Hordeum HPPD
Description: (§1) HPPD produces homogentisic acid and CO2 from 4-hydroxyphenylpyruvate (4-HPP) and O2. The activity assay for HPPD is based on the analysis of homogentisic acid by reversed phase HPLC.
(§2) The assay mixture can contain 150 mM potassium phosphate buffer pH 7.0, 50 mM L-ascorbic acid, 1 μM FeSO4 and 7 μg of purified enzyme in a total volume of 1 ml. Inhibitors are dissolved in DMSO (dimethylsulfoxide) to a concentration of 20 mM or 0.5 mM, respectively. From this stock solution serial five-fold dilutions are prepared in DMSO, which are used in the assay. The respective inhibitor solution accounts for 1% of the assay volume. […]
(§3) Activities are normalized by setting the uninhibited enzyme activity to 100%. […] values are calculated using non-linear regression. […]
(§4) Inhibitors are dissolved in DMSO (dimethylsulfoxide) to a concentration of 0.5 mM. […] IC50 values are calculated using non-linear regression.
(§5) Using methods which are described in the above examples or well known in the art, purified, recombinant wildtype HPPD enzymes are characterized with respect to their kinetic properties and sensitivity towards HPPD inhibiting herbicides. Apparent michaelis constants (Km) and maximal reaction velocities (Vmax) are calculated by non-linear regression with the software GraphPad Prism 5 (GraphPad Software, La Jolla, USA) using a substrate inhibition model. […]

[2] = tested on: Blepharisma HPPD; experiment: HPPD activity assay, Blepharisma HPPD; type: biochemical; settings: normalized on Hordeum HPPD
Description: as §1, §2, §3, §4, §5

[3] = target: T1, Hordeum HPPD variant L353M, P321R, V212I (Hordeum vulgare, UniProt O48604, L353M/P321R/V212I); experiment: HPPD activity assay, Hordeum HPPD mutant L353M, P321R, V212I; type: biochemical; settings: normalized on wildtype
T1 construct: His6; made in house; host or cells: E. coli BL21 (DE3)
Description: as §1
as §2, with “volume. Thus, final inhibitor concentrations range from 200 μM to 2.5 nM or from 5 μM to 63 pM, respectively. After a preincubation of 30 min the reaction is started by adding 4-HPP to a final concentration of 0.1 mM.” for “volume.”
as §4
(§6) Purified, mutant HPPD enzymes are obtained by the methods described above. […] Apparent michaelis constants (Km) and maximal reaction velocities (Vmax) are calculated by non-linear regression with the software GraphPad Prism 5 (GraphPad Software, La Jolla, USA) using a substrate inhibition model. […] Weighted means (by standard error) of Km and […] values are calculated from at least three independent experiments. […]

[4] = tested on: Rhodococcus HPPD2; experiment: HPPD activity assay, Rhodococcus HPPD2; type: biochemical; settings: normalized on Hordeum HPPD
Description: as §1, §2, §3, §4, §5

[5] = tested on: Rhodococcus HPPD1; experiment: HPPD activity assay, Rhodococcus HPPD1; type: biochemical; settings: normalized on Hordeum HPPD
Description: as §1, §2, §3, §4, §5

[6] = tested on: Kordia HPPD; experiment: HPPD activity assay, Kordia HPPD; type: biochemical; settings: normalized on Hordeum HPPD
Description: as §1, §2, §3, §4, §5

[7] = tested on: Avena HPPD; experiment: HPPD activity assay, Avena HPPD; type: biochemical; settings: normalized on Hordeum HPPD
Description: as §1, §2, §3, §4, §5

[8] = tested on: transgenic Arabidopsis plants overexpressing Barley HPPD (Seq ID: 2); experiment: Arabidopsis growth inhibition in 48-well plates, line overexpressing Barley HPPD; type: in vivo, Arabidopsis thaliana; settings: Barley HPPD (Seq ID: 2) overexpression line; plant growth IC50 of transgenic divided by wildtype
Description: Depending on the species, the plants are kept at 10-25° C. or 20-35° C. The test period extends over 3 weeks. During this time, the plants are tended and their response to the individual treatments is evaluated. Herbicide injury evaluations are taken at 2 and 3 weeks after treatment. Plant injury is rated on a scale of 0 to 9, 0 being no injury and 9 being complete death. Tolerance to coumarone-derivative herbicides can also be assessed in Arabidopsis. In this case transgenic Arabidopsis thaliana plants are assayed for improved tolerance to coumarone-derivative herbicides in 48-well plates. Seeds are surface sterilized by stirring for 5 min in ethanol+water (70+30 by volume), rinsing one time with ethanol+water (70+30 by volume) and two times with a sterile, deionized water. The seeds are resuspended in 0.1% agar dissolved in water (w/v). Four to five seeds per well are plated on solid nutrient medium consisting of half-strength Murashige Skoog nutrient solution, pH 5.8 (Murashige and Skoog (1962) Physiologia Plantarum 15: 473-497). […] Seven to ten days after seeding growth inhibition is evaluated by comparison to wild type plants. Tolerance factor is calculated by dividing the plant growth IC50 value of transgenic plants containing a HPPD and/or HST sequence by that of wildtype plants. […]

[9] = target: T2, Hordeum HPPD variant L320H, P321A (Hordeum vulgare, UniProt O48604, L320H/P321A); experiment: HPPD activity assay, Hordeum HPPD mutant L320H, P321A; type: biochemical; settings: normalized on wildtype
T2 construct: His6; made in house; host or cells: E. coli BL21 (DE3)
Description: as §1
as §2, with “volume. Thus, final inhibitor concentrations range from 200 μM to 2.5 nM or from 5 μM to 63 pM, respectively. After a preincubation of 30 min the reaction is started by adding 4-HPP to a final concentration of 0.1 mM.” for “volume.”
as §4, §6

T1 sequence (O48604 whole entry R146V/R147D/R148G/A164G/V212I/P321R/L353M): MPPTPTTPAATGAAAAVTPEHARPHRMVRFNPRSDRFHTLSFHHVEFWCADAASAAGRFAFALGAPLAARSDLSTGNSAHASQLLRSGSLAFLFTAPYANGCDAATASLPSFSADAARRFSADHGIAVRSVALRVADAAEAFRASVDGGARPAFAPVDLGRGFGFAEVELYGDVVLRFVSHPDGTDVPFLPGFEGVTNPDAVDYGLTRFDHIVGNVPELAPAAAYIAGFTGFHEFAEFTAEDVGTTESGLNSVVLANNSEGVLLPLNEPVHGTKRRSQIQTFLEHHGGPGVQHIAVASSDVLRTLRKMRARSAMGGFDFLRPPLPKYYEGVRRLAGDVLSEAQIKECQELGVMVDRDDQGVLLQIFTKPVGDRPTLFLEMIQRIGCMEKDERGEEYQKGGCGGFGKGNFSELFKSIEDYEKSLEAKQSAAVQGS
T2 sequence (O48604 whole entry R146V/R147D/R148G/A164G/L320H/P321A): as the sequence (O48604 whole entry R146V/R147D/R148G/A164G/V212I/P321R/L353M) above, with I212V, L320H, R321A, M353L counted along it

Q: How did the “Normalized tolerance index (TI)” value [1] turn out when CC1=NOC(c2c(Cl)ccc(C3=C(O)c4ncccc4N(CC(F)F)S3(=O)=O)c2Cl)C1 (stereo not drawn) [Inhibitor 1, 3-[2,4-dichloro-3-(3-methyl-4,5-dihydroisoxazol-5-yl)phenyl]-1-(2,2-difluoroethyl)-2,2-dioxo-pyrido[3,2-c]thiazin-4-ol] was run?
A: 6.5

Q: And the “Normalized tolerance index (TI)” value [2]?
A: 6.3

Q: What about the “Normalized tolerance index (TI)” value [3] of the same molecule?
A: 2.3

Q: What about the “Normalized tolerance index (TI)” value [4] of the same molecule?
A: 73.9

Q: And the “Normalized tolerance index (TI)” value [5]?
A: 40.1

Q: What about the “Normalized tolerance index (TI)” value [6] of the same molecule?
A: 7.5

Q: What about the “Normalized tolerance index (TI)” value [7] of the same molecule?
A: 7.4

Q: What about the Tolerance factor [8] of the same molecule?
A: 3

Q: And the “Normalized tolerance index (TI)” value [9]?
A: 6.5

Q: Which results are given for O=S1(=O)C(c2c(Cl)cc(Cl)nc2Cl)=C(O)c2ncccc2N1CC(F)F [Inhibitor 2, 1-(2,2-difluoroethyl)-2,2-dioxo-3-(2,4,6-trichloro-3-pyridyl)pyrido[3,2-c]thiazin-4-ol]?
A: Normalized tolerance index (TI) [1]: 5.6; Normalized tolerance index (TI) [2]: 4.9; Normalized tolerance index (TI) [3]: 3; Normalized tolerance index (TI) [4]: 20.5; Normalized tolerance index (TI) [5]: 17.1; Normalized tolerance index (TI) [6]: 12; Normalized tolerance index (TI) [7]: 5.2; Tolerance factor [8]: 4; Normalized tolerance index (TI) [9]: 3.7
